# Assay results: US12122766B2, “3-azabicyclo[3,1,1]heptane derivative and pharmaceutical composition including same” (LG CHEM, LTD., priority 2018, dated 2024)
# Target: T1, Ketohexokinase (KHK) (Homo sapiens, UniProt P50053)
# T1 construct: His tag; made in house; host or cells: E. coli
# T1 sequence (P50053 1-298): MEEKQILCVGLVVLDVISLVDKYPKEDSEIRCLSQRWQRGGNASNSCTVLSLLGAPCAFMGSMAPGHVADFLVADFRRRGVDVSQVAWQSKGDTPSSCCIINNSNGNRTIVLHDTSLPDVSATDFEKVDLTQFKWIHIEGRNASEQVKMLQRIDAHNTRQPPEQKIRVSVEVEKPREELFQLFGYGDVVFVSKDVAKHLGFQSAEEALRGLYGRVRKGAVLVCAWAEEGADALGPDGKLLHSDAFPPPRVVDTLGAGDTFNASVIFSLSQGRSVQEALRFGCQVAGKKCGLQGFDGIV
# Experiment: Activity measurement of ketohexokinase inhibitor in vitro (Transcreener ADP2 TR-FRET Red Assay)
# Type: biochemical
# Details: purified His-tagged KHK expressed in E. coli; 30 min preincubation with inhibitor, 15 min reaction with ATP and fructose; ADP by TR-FRET (665/615 ratio)
# Experimental: Ketohexokinase (KHK) was expressed in E. coli, and was purified using His tag. In order to measure the activity of the purified KHK, Transcreener ADP2 TR-FRET Red Assay kit of BellBrook Labs was used. A method of measuring the amount of ADP produced using TR-FRET after reacting a solution including appropriate concentrations of a KHK protein, ATP, and fructose for 15 minutes, was used. In order to observe the activity of a ketohexokinase (KHK) inhibitor, ketohexokinase (KHK) and an inhibitor with an appropriate concentration were reacted first for 30 minutes, and then, reacted with a solution include a substrate of ketohexokinase (KHK) for 15 minutes. Then, reaction for TR-FRET was conducted for 1 hour, and fluorescence was measured using Envision apparatus of PerkinElmer Co. The predetermined value of Envision apparatus was determined according to the optimization process of TR-FRET published by BellBrook Lab. The resultant value for each concentration of the ketohexokinase (KHK) inhibitor is determined by a ratio of 665 nm wavelength and 615 nm wavelength. IC50 is analyzed by measuring the 665/615 ratio value with respect to the concentration of each inhibitor and using a statistics software (Prizm). IC50 was represented by the concentration of the inhibitor, showing 50% of the maximum inhibition activity by the inhibitor.
row,SMILES,IC50
1,"C[C@H]1CCN1c1nc(N2C[C@H]3C[C@@H](C2)[C@H]3CC(=O)O)cc(C(F)(F)F)n1 [Example 1, 2-((1R,5S,6R)-3-(2-((S)-2-methylazetidine-1-yl)-6-(trifluoromethyl)pyrimidine-4-yl)-3-azabicyclo[3,1,1]heptane-6-yl)acetic Acid]",≥ 1 µM
2,"N#Cc1c(C(F)(F)F)cc(N2C[C@H]3C[C@@H](C2)[C@@H]3CC(=O)O)nc1N1CCCC1 [Example 5, 2-((1R,5S,6R)-3-(5-cyano-6-(pyrrolidine-1-yl)-4-(trifluoromethyl)pyridine-2-yl)-3-azabicyclo[3,1,1]heptane-6-yl)acetic Acid]",≤ 21.2 µM
3,"C[C@H]1CCN1c1nc(N2C[C@H]3C[C@@H](C2)[C@@H]3CC(=O)O)cc(C(F)(F)F)n1 [Example 2, 2-((1R,5S,6S)-3-(2-((S)-2-methylazetidine-1-yl)-6-(trifluoromethyl)pyrimidine-4-yl)-3-azabicyclo[3,1,1]heptane-6-yl)acetic Acid]",≤ 21.2 µM

# Continued, values first:
row,IC50,SMILES
1,≥ 1 µM,"C[C@H]1CCN1c1nc(N2C[C@H]3C[C@@H](C2)[C@H]3CC(=O)O)cc(C(F)(F)F)c1C#N [Example 3, 2-((1R,5S,6R)-3-(5-cyano-6-((S)-2-methylazetidine-1-yl)-4-(trifluoromethyl)pyridine-2-yl)-3-azabicyclo[3,1,1]heptane-6-yl)acetic Acid]"
2,≤ 21.2 µM,"C[C@H]1CCN1c1nc(N2C[C@H]3C[C@@H](C2)[C@@H]3CC(=O)O)cc(C(F)(F)F)c1C#N [Example 4, 2-((1R,5S,6S)-3-(5-cyano-6-((S)-2-methylazetidine-1-yl)-4-(trifluoromethyl)pyridine-2-yl)-3-azabicyclo[3,1,1]heptane-6-yl)acetic Acid]"
